Laboratory results reported in patent US20240261323A1, “PLURI-IONIC COMPLEX FOR THE PREVENTION OR TREATMENT OF NEUROGENIC INFLAMMATION” (OLYS PHARMA SRL, priority 2021, published 2024).

Legend:
[1] = tested on: sensory neurons myelinated by Schwann cells; test: Neuroprotection on myelinated sensory neuron/Schwann cell coculture, cisplatin poisoning, curative protocol (co-incubation 24 h); format: cell-based, rat
Excerpt: The in vitro model used is a culture of sensory neurons myelinated by Schwann cells (Callizot et al., 2011, Exp Cell Res 317:2374-2383). This model, miniaturized in 96 wells, makes it possible to analyze the effects of molecules on the development of sensory neurons and on the myelination of axons by Schwann cells.
(§1) Protocol of the coculture of sensory neurons and Schwann cells: Female rats with 15 days gestation were killed by cervical dislocation (Wistar rats; January Lab) and the fetuses were removed from the uterus. Embryonic DRGs were collected and placed in an icy medium of Leibovitz 15 (L15; PanBiotech, Ref P04-27055, batch: 4590720) containing 2% Penicillin-Streptomycin (PS; PanBiotech, ref: P06-07100, batch: 7390220) and 1% bovine serum albumin (BSA; PanBiotech, Ref: P06-1391100, batch: H200403). DRGs were dissociated by trypsinization for 20 minutes (min) at 37° C. (Trypsin EDTA 1×; PanBiotech, Ref: P10-023100, batch: 3590720). The reaction was stopped by the addition of Dulbecco's modified Eagle medium (DMEM; PanBiotech, Ref: P04-03600, batch: 4080720) containing DNase I grade II (0.1 mg/ml; PanBiotech, Ref: P60-37780100, batch: H181015) and 10% fetal calf serum (FCS; Invitrogen, Ref: 10270106, batch: 2232584). The cells were then mechanically dissociated by 3 passes through a 10 ml pipette. The cells were then centrifuged at 180×g for 10 min at +4° C. on a layer of BSA (3.5%) in medium L15. The supernatant was discarded and the cell pellets were resuspended in a defined culture medium consisting of Neurobasal (Invitrogen, Ref: 21103049, batch: 2176355) supplemented with 2% B27; (Invitrogen, ref: 17504-044, batch: 2193553), L-glutamine (2 mM; PanBiotech, Ref: P04-80100, batch: 3301019), 2% PS and 50 ng/mL NGF (Sigma, Ref: N1408, L batch batch: SLCG1641). The viable cells were then counted in a Neubauer cytometer using the trypan blue exclusion test. The cells were seeded at a density of 12000 cells/wells in 96-well plates (pre-coated with poly-D-lysine; Greiner, Ref: 655940, batch: E20093UL) and have been grown at 37° C. in humidified air (95%)/C02 (5%) atmosphere. Half of the middle was changed every 2 days with fresh middle. The cells are held for 7 to 12 days to allow the proliferation of Schwann cells and sensory neurons. On day 8, the medium is supplemented with 50 μg/mL of ascorbic acid (AA; Sigma, Ref 092902, batch: 05316HJ-438) to initiate the differentiation of Schwann basal cells into myelinating Schwann cells.
Under these conditions, after 5 days of culture with AA, the myelin sheaths are detected with an anti-MAG antibody ([…]), an early marker of myelin. • A. Study of the neuroprotective properties of pluri-ionic compositions on myelinated sensory neurons after Cisplatin poisoning: curative protocol
Cis-diammineplatin (II) dichloride (cisplatin; Sigma, ref: P4394, batch: MKCL0026) was reconstituted in medium at 10 mg/ml (stock solution). The control environment was prepared under the same conditions. After 12 days of culture with AA, the primary sensory neurons were treated for 24 hours with pluri-ionic compositions in the presence or absence of cisplatin poisoning. The cisplatin preparation was used on neurons at a final concentration of 12 μM diluted in control medium for 24 hours of incubation. The pluri-ionic compositions tested are obtained by dissolution in water of lithium chloride, magnesium chloride hexahydrate and potassium chloride, and contain: • 1. KY21400: Li 10.37 mmol/kg, Mg 2.27 mmol/kg, K 16.88 mmol/kg • 2. KY21310: Li 5.76 mmol/kg, Mg 1.26 mmol/kg, K 9.38 mmol/kg • 3. KY21200: Li 1.73 mmol/kg, Mg 0.38 mmol/kg, K 2.81 mmol/kg […]

[2] = tested on: sensory neurons myelinated by Schwann cells; test: Toxicity of isolated or combined ions on sensory neurons without cisplatin; format: cell-based, rat; conditions: Table 1; isolated or combined ions (chlorides), no cisplatin
Excerpt: as §1
The following conditions were tested: • Control medium • Control+cisplatin (12 μM, 24 h) • Pluri-ionic compositions KY21400, KY21310 or KY21200+cisplatin (12 μM, 24 h) • Pluri-ionic compositions KY21400, KY21310 or KY21200 • Control+individual ions at various concentrations • Control+cisplatin (12 μM, 24 h)+individual ions at various concentrations
For the evaluation of the toxicity of individual ions, the cells are fixed after 3 days of treatment. The cells are incubated with an anti-beta-tubulin mouse monoclonal antibody (1/2000, Sigma; Ref T8660-.2 mL; batch: 034M4790V) in a blocking buffer at 4° C. for 12 hours.
The cell nuclei were labeled with a fluorescent marker (Hoechst's solution, Sigma; ref: H-33258, batch: 046M4048V) in the same buffer.
For each condition, 20 images per well were taken using InCell Analyzer™ 2200 (GE Healthcare) with a magnification of 20×. The images of each well of culture were taken under the same conditions. The analysis was performed using Developer software (GE Healthcare). A total of 6 data per experimental condition was provided.
In parallel, the effect of isolated or combined ions two by two on the survival of sensory neurons and the length of neurites was also evaluated under the same conditions. The solutions are all prepared from the chlorides of the ions tested.

[3] = tested on: rat myelinated primary sensory neurons; test: Neuroprotection on rat myelinated primary sensory neurons after cisplatin injury, protection protocol (2 h pretreatment); format: cell-based
Excerpt: as §1
Cis-diammineplatin (II) dichloride (cisplatin; Sigma, ref: P4394, batch: MKCL0026) was reconstituted in medium at 10 mg/ml (stock solution). The control environment was prepared under the same conditions. […]
The following conditions were assessed: • Control medium • Control+cisplatin (12 μM, 24 h) • Pluri-ionic compositions KY21400, KY21310 or KY21200+cisplatin (12 μM, 24 h) • Pluri-ionic compositions KY21400, KY21310 or KY21200.
This study was carried out with 6 wells per condition and duplicated for validation of the results. The data taken and analyzed are the added results of the 2 studies. […]

[4] = Table 2, isolated ions with cisplatin 12 μM, 24 h
[5] = concentrations ranging from 0.15 mg/kg to 1.2 mg/kg, same conditions
[6] = Table 1, with cisplatin 12 μM, 24 h, composition incubated at the same time
[7] = cisplatin 12 μM, 24 h, composition co-incubated

SMILES	Average percentage of neurite length relative to control [1, 4]	Mean percentage of sensory neurons number relative to control [1, 4]	Mean percentage of neurite length relative to control [2]	Mean percentage of sensory neurons number relative to control [2]	also measured
[K+] [K 366 mg/kg = 9.38 mmol/kg]	91%	58%	115%	117%	
[Cl-].[Li+] [Li 40 mg/kg = 5.8 mmol/kg]	80%	66%	77%	97%	
[Mn+2] [Manganese]					effect on neurite length [1, 5]: without demonstrating any significant effect; effect on neuron survival [1, 5]: without demonstrating any significant effect; effect on the myelin sheath length [3, 5]: without demonstrating any significant effect
[Cl-].[Cl-].[Mg+2] [Mg 30.8 mg/kg = 1.27 mmol/kg]			98%	108%	
N.N.[Cl][Pt][Cl] [cisplatin, Cis-diammineplatin (II) dichloride]	63-75%	51-57%			Mean percentage of neurite length relative to control [1, 6]: 35%; Mean percentage of sensory neurons number relative to control [1, 6]: 39%; Mean percentage of sensory neurons number relative to control ([1]; Table 4, with cisplatin (12 mm, 24 h)): 53.1%; loss of myelin [1, 7]: 78%; loss of neurites [1, 7]: 65%; cell death of sensory neurons (dead cells) ([1]; cisplatin 12 μM, 24 h, composition during the 24 h of cisplatin lesion): 61%; loss of neurites ([3]; cisplatin 12 μM, 24 h): 51%; cell death ([3]; cisplatin 12 μM, 24 h, composition two hours before and during cisplatin injury): 64%; loss of myelin ([3]; cisplatin 12 μM, 24 h, two-hour pre-treatment with composition): 69%
